Laboratory results as given in the supplement of paper PMC10307832.

Legend:
Assay in all cases: relative viability (nuclei count vs DMSO), 5 days (fraction); higher = more cells survive
Shikonin + Pictilisib = compound: CC(C)=CC[C@@H](O)C1=CC(=O)c2c(O)ccc(O)c2C1=O [Shikonin] + CS(=O)(=O)N1CCN(Cc2cc3nc(-c4cccc5[nH]ncc45)nc(N4CCOCC4)c3s2)CC1 [Pictilisib] (partner 1 µM)
Procedure, shortened: (§1)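 Dosing by pin tool came one day after lung cancer cell lines were seeded in 1536-well plates, using either one drug or a fixed anchor-drug dose plus five library-drug doses (not always all listed) in √10 steps. After 5 days, nuclei were counted on 4× images. Relative viability is treated-well nuclei count divided by vehicle-well nuclei count, and values are medians of duplicate plates.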

[1] = compound: CC(C)N(CCCNC(=O)Nc1ccc(C(C)(C)C)cc1)C[C@H]1O[C@@H](n2ccc3c(N)ncnc32)[C@H](O)[C@@H]1O + Cc1nc(NC(=O)N2CCC[C@H]2C(N)=O)sc1-c1ccnc(C(C)(C)C(F)(F)F)c1 [Alpelisib] (partner 2 µM)
Procedure, shortened: as §1

Shikonin + Lapatinib = compound: CC(C)=CC[C@@H](O)C1=CC(=O)c2c(O)ccc(O)c2C1=O [Shikonin] + CS(=O)(=O)CCNCc1ccc(-c2ccc3ncnc(Nc4ccc(OCc5cccc(F)c5)c(Cl)c4)c3c2)o1 [Lapatinib] (partner 2 µM)
Procedure, shortened: as §1

[2] = compound: CC(C)N(CCCNC(=O)Nc1ccc(C(C)(C)C)cc1)C[C@H]1O[C@@H](n2ccc3c(N)ncnc32)[C@H](O)[C@@H]1O + CS(=O)(=O)CCNCc1ccc(-c2ccc3ncnc(Nc4ccc(OCc5cccc(F)c5)c(Cl)c4)c3c2)o1 [Lapatinib] (partner 2 µM)
Procedure, shortened: as §1

Cell Line	relative viability (Shikonin + Pictilisib; first compound 0.01 µM)	relative viability (Shikonin + Pictilisib; first compound 0.1 µM)	relative viability (Shikonin + Pictilisib; first compound 0.3162 µM)	relative viability (Shikonin + Pictilisib; first compound 1 µM)	relative viability ([1]; first compound 0.08 µM)	relative viability ([1]; first compound 0.253 µM)	relative viability ([1]; first compound 0.8 µM)	relative viability ([1]; first compound 2.53 µM)	relative viability ([1]; first compound 8 µM)	relative viability (Shikonin + Lapatinib; first compound 0.01 µM)	relative viability (Shikonin + Lapatinib; first compound 0.1 µM)	relative viability (Shikonin + Lapatinib; first compound 0.3162 µM)	relative viability (Shikonin + Lapatinib; first compound 1 µM)	relative viability ([2]; first compound 0.08 µM)	relative viability ([2]; first compound 0.253 µM)	relative viability ([2]; first compound 0.8 µM)	relative viability ([2]; first compound 2.53 µM)	relative viability ([2]; first compound 8 µM)
HCC-44	0.663	0.835	0.564	0.728	0.811	0.785	0.744	0.787	0.806	1.07	1.07	1.05	1.09	1.08	1.11	0.857	1.05	0.959
HCC-827	1.12	0.786	1.03	0.871	0.922	0.938	–	0.952	0.919	0.166	0.17	0.191	0.19	0.207	0.217	–	0.174	0.158
NCI-H2405	0.442	0.401	0.553	0.474	0.858	–	0.789	0.89	0.795	1.13	1.28	1.11	1.16	1.14	–	0.811	1.13	1.09
RERF-LC-KJ	0.549	0.512	0.557	0.248	0.826	0.757	0.868	0.838	0.815	0.972	0.939	0.83	0.941	0.894	0.841	0.861	0.911	0.829
NCI-H1651	0.612	0.562	0.669	0.64	0.882	0.98	0.92	0.935	1.04	0.714	0.925	0.919	0.844	0.724	0.727	0.586	0.779	0.93
HARA	0.226	0.527	0.477	0.43	0.795	0.744	0.763	0.701	0.779	0.888	0.903	0.853	0.77	0.637	0.679	0.429	0.498	0.568
NCI-H1650	0.682	0.684	0.481	0.571	–	–	–	–	–	0.758	0.819	0.684	0.757	0.753	0.584	–	0.762	0.884
NCI-H1395	0.603	0.695	0.584	0.652	1.11	0.996	–	1.21	1.05	0.924	1.26	0.923	0.895	1.15	1.02	–	0.94	0.904
NCI-H520	–	0.393	0.263	0.348	0.796	0.879	0.758	0.789	0.861	–	0.813	0.884	0.923	0.712	0.58	0.655	0.845	0.811
LU99A	0.309	0.3	0.337	0.303	0.477	0.445	0.54	0.555	0.503	1.1	1.32	0.881	0.891	0.923	0.679	1.16	1.16	1.04
NCI-H1355	0.407	0.498	0.408	0.445	0.768	0.809	–	0.772	0.804	1.07	1.05	1.07	1.05	0.94	0.975	–	1	0.857
HCC-78	0.185	0.234	0.188	0.249	0.272	0.289	0.323	0.334	0.315	0.778	1.07	0.705	1.06	0.693	0.809	0.786	0.431	0.701
NCI-H1563	0.629	0.719	0.675	0.566	0.991	0.907	1.09	0.973	0.991	0.87	1.08	0.923	0.779	0.862	0.836	0.742	1.05	0.915
HCC-15	0.699	0.789	0.732	0.832	0.79	0.863	0.891	0.93	0.811	0.945	0.996	0.918	0.919	0.864	0.876	0.68	0.818	0.804
EKVX	0.46	0.451	0.496	0.448	0.908	0.883	0.827	0.855	0.676	0.18	0.202	0.214	0.19	0.205	0.202	0.185	0.206	0.212
NCI-H2126	0.508	0.5	0.496	0.553	0.734	0.712	0.78	0.783	0.722	0.779	0.795	0.81	0.824	0.721	0.735	0.681	0.718	0.742
LK-2	0.531	0.546	0.619	0.476	0.923	1.02	1.01	0.934	1.02	1.26	1.06	1.22	1.06	0.842	0.792	0.985	0.867	0.82
NCI-H1437	0.424	0.421	0.416	0.477	0.9	1.01	1.1	0.903	0.945	0.846	0.78	0.884	0.848	0.703	0.77	0.773	0.722	0.715
